Reference: patent US20240043435A1, “TYK-2 INHIBITOR” (BEIGENE, LTD., priority 2020, published 2024)

What was measured:
[1] = tested on: pSTAT5/GM-CSF; assay: pSTAT5/GM-CSF cellular assay (JAK2 selectivity); format: cell-based
[2] = tested on: JAK2, TYK2/p-STAT4 (Tyr693) activated by IL-12 in NK-92 cell line; assay: IL-12-JAK2, TYK2/p-STAT4 (Tyr693) inhibition IC50 cellular assay; format: cell-based; conditions: for IC50: NK92, Cellular assay, read-out: pSTAT4/IL-12 IC50; for Selectivity fold (TYK2/JAK2): Cellular assay, pSTAT5/GM-CSF IC50 vs pSTAT4/IL-12 IC50
Method in brief: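 p-STAT4 (Tyr693) in lysates was measured by AlphaLISA SureFire Ultra after a 30 min IL-12 challenge (40 ng/ml final) at 37° C. Overnight-starved, IL-2-free NK-92 cells had been pretreated 1 h with compound at 10000 to 0.61 nM (4-fold, 8 points). IC50 values came from four-parameter logistic fitting.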

[3] = target: T1, TYK2-JH2 (aa 575-869, in-house) protein (Homo sapiens, UniProt P29597); assay: TYK2-JH2 biochemical assay (HTRF probe displacement); format: binding; conditions: Biochemical assay; read-out: TYK2-JH2 IC50
T1 construct: TYK2-JH2 (aa 575-869, in-house) protein; made in house
Method in brief: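 HTRF probe-displacement format: compound dilutions (10 points, 5-fold, from 500 uM in DMSO at 500×) were combined with 0.2 nM TYK2-JH2 protein for 0.5 h at room temperature in HEPES pH 7.5 buffer with MgCl2, BSA, DTT and Brij-35. Percent inhibition came from the 615/665 nm fluorescence ratio, fitted to a four-parameter logistic for IC50.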

[4] = pSTAT5/GM-CSF IC50 over pSTAT4/IL-12 IC50

T1 sequence (P29597 575-869): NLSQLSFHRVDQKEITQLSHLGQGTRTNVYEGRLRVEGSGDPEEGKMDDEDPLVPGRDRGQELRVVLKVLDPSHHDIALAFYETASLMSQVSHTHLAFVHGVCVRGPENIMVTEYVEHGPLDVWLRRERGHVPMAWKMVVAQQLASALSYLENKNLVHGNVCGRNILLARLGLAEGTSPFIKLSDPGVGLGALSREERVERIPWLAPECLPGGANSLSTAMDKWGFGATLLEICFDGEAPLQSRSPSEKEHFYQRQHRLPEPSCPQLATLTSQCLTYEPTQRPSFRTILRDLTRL

Row | SMILES | IC50 [1] [nM] | Selectivity fold (TYK2/JAK2) [1, 4] [fold] | IC50 [2] [nM] | IC50 [3] [nM] | Selectivity fold (TYK2/JAK2) [2] [fold] | Selectivity fold (TYK2/JAK2) ([1]; pSTAT5/GM-CSF vs pSTAT4/IL-12) [fold]
1 | CC(=O)Nc1cc(Nc2cc(OC(C)C)cc(S(C)(=O)=O)n2)c(-c2cc3n(n2)CCOC3)cn1 [Example Q6, N-(5-(6,7-dihydro-4H-pyrazolo[5,1-c][1,4]oxazin-2-yl)-4-((4-isopropoxy-6-(methylsulfonyl)pyridin-2-yl)amino)pyridin-2-yl)acetamide] | > 10000 | >22222 | 0.45 | 0.028 |  | 
2 | COCCOc1cc(Nc2cc(NC(C)=O)ncc2-c2ccc(C(F)(F)F)cn2)nc(S(C)(=O)=O)c1 [Example F11, N-(4′-((4-(2-methoxyethoxy)-6-(methylsulfonyl)pyridin-2-yl)amino)-5-(trifluoromethyl)-[2,3′-bipyridin]-6′-yl)acetamidecarboxamide] | > 10000 |  | 0.705 | 0.037 | >14184 | 
3 | CC(=O)Nc1cc(Nc2cc(OCCO)cc(S(C)(=O)=O)n2)c(-c2ccn(C(C)C)n2)cn1 [Example M28, N-(4-((4-(2-hydroxyethoxy)-6-(methylsulfonyl)pyridin-2-yl)amino)-5-(1-isopropyl-1H-pyrazol-3-yl)pyridin-2-yl)acetamide] | > 10000 | >601 | 16.6 | 0.032 |  | 
4 | CCn1ccc(-c2cnc(NC(C)=O)cc2Nc2cc(OC)cc(S(C)(=O)=O)c2)n1 [Example M9, N-(5-(1-ethyl-1H-pyrazol-3-yl)-4-((3-methoxy-5-(methylsulfonyl)phenyl)amino)pyridin-2-yl)acetamide] | > 10000 | >1416 | 7.06 | 0.035 |  | 
5 | CC(=O)Nc1cc(Nc2cc(OCCO)cc(S(C)(=O)=O)n2)c(-c2ccc(N3CCOCC3=O)cn2)cn1 [Example G3, N-(4′-((4-(2-hydroxyethoxy)-6-(methylsulfonyl)pyridin-2-yl)amino)-5-(3-oxomorpholino)-[2,3′-bipyridin]-6′-yl)acetamide] | > 10000 |  | 224 | 0.05 |  | >44
6 | CCn1ccc(-c2cnc(NC(C)=O)cc2Nc2cccc(S(C)(=O)=O)c2)n1 [Example M8, N-(5-(1-ethyl-1H-pyrazol-3-yl)-4-((3-(methylsulfonyl)phenyl)amino)pyridin-2-yl)acetamide] | > 10000 | >6097 | 1.64 | 0.04 |  | 
7 | COC(C)c1cc(Nc2cc(NC(C)=O)ncc2-c2ccc(N3C[C@@H](C)O[C@@H](C)C3)cn2)nc(S(C)(=O)=O)c1 (stereo partly drawn) [Example C18, N-(5-(cis-2,6-dimethylmorpholino)-4′-((4-(1-methoxyethyl)-6-(methylsulfonyl)pyridin-2-yl)amino)-[2,3′-bipyridin]-6′-yl)acetamide] | 4870 |  | 0.639 | 0.023 | 7625 | 
8 | CO[C@H]1C[C@@H](c2cc(Nc3cc(NC(C)=O)ncc3-c3ccc4c(n3)OCC(C)(C)O4)nc(S(C)(=O)=O)c2)C1 [Example Q53, N-(5-(2,2-dimethyl-2,3-dihydro-[1,4]dioxino[2,3-b]pyridin-6-yl)-4-((4-((cis)-3-methoxycyclobutyl)-6-(methylsulfonyl)pyridin-2-yl)amino)pyridin-2-yl)acetamide] | > 10000 | >17211 | 0.581 | 0.047 |  | 
9 | COCc1cc(Nc2cc(NC(C)=O)ncc2-c2ccc(C(C)(C)O)cn2)nc(S(C)(=O)=O)c1 [Example H13, N-(5-(2-hydroxypropan-2-yl)-4′-((4-(methoxymethyl)-6-(methylsulfonyl)pyridin-2-yl)amino)-[2,3′-bipyridin]-6′-yl)acetamide] | 4080 |  | 0.676 | 0.042 | 6028 | 
10 | COCCOc1ccc(-c2cnc(NC(C)=O)cc2Nc2cc(OCC3CC3)cc(S(C)(=O)=O)c2)nc1 [Example D10, N-(4′-((3-(cyclopropylmethoxy)-5-(methylsulfonyl)phenyl)amino)-5-(2-methoxyethoxy)-[2,3′-bipyridin]-6′-yl)acetamide] | > 10000 |  | 12.7 | 0.052 | >789 | 
11 | CC(=O)Nc1cc(Nc2cc(C#N)cc(S(C)(=O)=O)c2)c(-c2ccc(C(C)(C)O)cn2)cn1 [Example H20, N-(4′-((3-cyano-5-(methylsulfonyl)phenyl)amino)-5-(2-hydroxypropan-2-yl)-[2,3′-bipyridin]-6′-yl)acetamide] | > 10000 |  | 35.2 | 0.046 | >284 | 
12 | CC(=O)Nc1cc(Nc2cc(C)cc(S(C)(=O)=O)n2)c(-c2ccc(OC(C)C)nn2)cn1 [Example A29, N-(5-(6-isopropoxypyridazin-3-yl)-4-((4-methyl-6-(methylsulfonyl)pyridin-2-yl)amino)pyridin-2-yl)acetamide] | > 10000 |  | 0.452 | 0.042 | >22123 | 
13 | CC(=O)Nc1cc(Nc2cc(OC(C)C)cc(S(C)(=O)=O)n2)c(-c2ccn([C@@H]3CCOC3)n2)cn1 [Example M34, (R)-N-(4-((4-isopropoxy-6-(methylsulfonyl)pyridin-2-yl)amino)-5-(1-(tetrahydrofuran-3-yl)-1H-pyrazol-3-yl)pyridin-2-yl)acetamide] | > 10000 | >24875 | 0.402 | 0.024 |  | 
14 | COC1CCN(c2cc(Nc3cc(NC(C)=O)ncc3-c3ccc4c(n3)OCC(C)(C)O4)nc(S(C)(=O)=O)c2)CC1 [Example Q52, N-(5-(2,2-dimethyl-2,3-dihydro-[1,4]dioxino[2,3-b]pyridin-6-yl)-4-((4-(4-methoxypiperidin-1-yl)-6-(methylsulfonyl)pyridin-2-yl)amino)pyridin-2-yl)acetamide] | 3420 | 2571 | 1.33 | 0.038 |  | 
15 | CC(=O)Nc1cc(Nc2cc(OC3COC3)cc(S(C)(=O)=O)n2)c(-c2ccn(C)n2)cn1 [Example J22, N-(5-(1-methyl-1H-pyrazol-3-yl)-4-((6-(methylsulfonyl)-4-(oxetan-3-yloxy)pyridin-2-yl)amino)pyridin-2-yl)acetamide] | > 10000 | >5181 | 1.93 | 0.037 |  | 
16 | CC(=O)Nc1cc(Nc2cc(OC(F)(F)F)cc(S(C)(=O)=O)c2)c(-c2ccn(C)n2)cn1 [Example J10, N-(5-(1-methyl-1H-pyrazol-3-yl)-4-((3-(methylsulfonyl)-5-(trifluoromethoxy)phe-nyl)amino)pyridin-2-yl)acetamide] | > 10000 | >1577 | 6.34 | 0.05 |  | 
17 | CC(=O)Nc1cc(Nc2cc(OC(C)C)cc(S(C)(=O)=O)n2)c(-c2ccn([C@H]3CCOC3)n2)cn1 [Example M33, (S)-N-(4-((4-isopropoxy-6-(methylsulfonyl)pyridin-2-yl)amino)-5-(1-(tetrahydrofuran-3-yl)-1H-pyrazol-3-yl)pyridin-2-yl)acetamide] | > 10000 | >15432 | 0.648 | 0.027 |  | 
